Measurements published in the supplement of paper PMC6045584.
± gives the standard deviation of the averaged measurements.

Experiments:
[1] = compound: C[C@@H]1CN(CC(=O)Nc2ccc3c(c2)Cc2cccc(-c4cc(=O)cc(N5CCOCC5)o4)c2S3)C[C@H](C)O1; test: surviving fraction relative to DMSO-only wells; higher = less growth inhibition; details: exposure time: 5 days
In short: (§1)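 Surviving fraction was calculated by normalising CellTiter-Glo luminescence to the median of DMSO-only wells. Tumour cell lines in log phase were seeded in 384-well plates at 250–500 cells per well, and 24 hours later were exposed continuously for five days to inhibitors at 0.5, 1, 5, 10, 50, 100, 500 and 1000 nM.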

BMN-673 = compound: Cn1ncnc1[C@H]1c2n[nH]c(=O)c3cc(F)cc(c23)N[C@@H]1c1ccc(F)cc1 [BMN-673]; test: as above; details: exposure time: 5 days
In short: as §1

Test System	surviving fraction ([1]; 0.5 nM)	surviving fraction ([1]; 1 nM)	surviving fraction ([1]; 5 nM)	surviving fraction ([1]; 10 nM)	surviving fraction ([1]; 50 nM)	surviving fraction ([1]; 100 nM)	surviving fraction ([1]; 500 nM)	surviving fraction ([1]; 1000 nM)	surviving fraction (BMN-673; 0.5 nM)	surviving fraction (BMN-673; 1 nM)	surviving fraction (BMN-673; 5 nM)	surviving fraction (BMN-673; 10 nM)	surviving fraction (BMN-673; 50 nM)	surviving fraction (BMN-673; 100 nM)	surviving fraction (BMN-673; 500 nM)	surviving fraction (BMN-673; 1000 nM)
MDAMB134 BREAST	1.04 ± 0.082	0.967 ± 0.073	0.955 ± 0.11	0.926 ± 0.04	0.678 ± 0.16	0.714 ± 0.052	0.7305 ± 0.0021	0.63 ± 0.049	0.955 ± 0.085	0.908 ± 0.14	0.971 ± 0.057	0.929 ± 0.014	1.01 ± 0.067	0.991 ± 0.025	0.857 ± 0.23	0.775 ± 0.08
MDAMB157 BREAST	0.905 ± 0.074	0.972 ± 0.025	1.01 ± 0.057	1.09 ± 0.059	1 ± 0.028	1.05 ± 0.046	0.896 ± 0.022	0.89 ± 0.093	0.999 ± 0.13	0.944 ± 0.081	0.844 ± 0.084	0.795 ± 0.1	0.541 ± 0.01	0.392 ± 0.01	0.228 ± 0.017	0.257 ± 0.036
MDAMB231 BREAST	0.965 ± 0.015	0.955 ± 0.016	0.993 ± 0.035	0.988 ± 0.023	0.955 ± 0.016	0.981 ± 0.021	0.73 ± 0.027	0.617 ± 0.025	0.98 ± 0.029	0.972 ± 0.02	0.898 ± 0.019	0.838 ± 0.022	0.711 ± 0.053	0.639 ± 0.011	0.523 ± 0.021	0.454 ± 0.03
MDAMB361 BREAST	0.778 ± 0.042	0.885 ± 0.074	0.776 ± 0.078	0.756 ± 0.083	0.591 ± 0.036	0.765 ± 0.056	0.548 ± 0.045	0.529 ± 0.071	0.804 ± 0.064	0.806 ± 0.018	0.829 ± 0.013	0.82 ± 0.041	0.856 ± 0.026	0.798 ± 0.07	0.782 ± 0.038	0.764 ± 0.062
MDAMB436 BREAST	0.892 ± 0.043	0.962 ± 0.095	0.922 ± 0.027	0.928 ± 0.058	0.858 ± 0.067	0.805 ± 0.068	0.761 ± 0.029	0.611 ± 0.066	0.734 ± 0.039	0.66 ± 0.056	0.481 ± 0.023	0.434 ± 0.031	0.413 ± 0.032	0.369 ± 0.026	0.349 ± 0.032	0.332 ± 0.02
MDAMB453 BREAST	1.02 ± 0.027	0.937 ± 0.054	0.994 ± 0.023	0.966 ± 0.035	0.937 ± 0.023	0.897 ± 0.046	0.9723 ± 0.0063	0.988 ± 0.039	1.1 ± 0.11	1.03 ± 0.054	1.12 ± 0.13	0.881 ± 0.057	0.724 ± 0.056	0.57 ± 0.029	0.454 ± 0.019	0.495 ± 0.044
MDAMB468 BREAST	0.975 ± 0.015	0.921 ± 0.024	0.951 ± 0.026	1 ± 0.025	0.935 ± 0.018	1 ± 0.091	0.824 ± 0.12	0.756 ± 0.076	0.993 ± 0.083	0.914 ± 0.024	0.824 ± 0.1	0.728 ± 0.12	0.578 ± 0.039	0.451 ± 0.053	0.305 ± 0.033	0.243 ± 0.013
MFM223 BREAST	1.17 ± 0.17	1.2 ± 0.037	1.17 ± 0.052	1.19 ± 0.02	0.935 ± 0.1	0.869 ± 0.12	0.885 ± 0.035	0.794 ± 0.1	1.25 ± 0.069	1.2 ± 0.073	1.07 ± 0.25	0.9232 ± 0.0025	0.805 ± 0.015	0.755 ± 0.047	0.734 ± 0.027	0.713 ± 0.072
MG63 BONE	1.03 ± 0.032	1.03 ± 0.038	1.076 ± 0.0081	1.1 ± 0.04	1.06 ± 0.02	1.08 ± 0.028	0.971 ± 0.025	0.919 ± 0.022	1.03 ± 0.023	0.988 ± 0.026	0.989 ± 0.028	0.917 ± 0.017	0.646 ± 0.014	0.432 ± 0.039	0.285 ± 0.0053	0.193 ± 0.029
MHM BONE	1.03 ± 0.024	1.01 ± 0.055	1.05 ± 0.012	1.05 ± 0.021	1.08 ± 0.0062	1.1 ± 0.018	1.08 ± 0.024	1.07 ± 0.032	1.03 ± 0.047	1 ± 0.035	1.01 ± 0.048	1.01 ± 0.051	0.997 ± 0.041	0.981 ± 0.0079	0.868 ± 0.017	0.782 ± 0.012
NCIH441 LUNG	1.04 ± 0.092	1.03 ± 0.085	0.957 ± 0.1	1.07 ± 0.062	1.11 ± 0.035	1.11 ± 0.087	1.02 ± 0.056	1.14 ± 0.11	1.11 ± 0.035	1.11 ± 0.081	1.01 ± 0.039	0.872 ± 0.037	0.78 ± 0.13	0.723 ± 0.1	0.584 ± 0.082	0.499 ± 0.083
NOS1 BONE	1.05 ± 0.15	1.07 ± 0.1	1.12 ± 0.13	1.23 ± 0.13	1.047 ± 0.007	1.12 ± 0.15	0.818 ± 0.029	0.661 ± 0.057	1.1 ± 0.058	0.953 ± 0.093	0.683 ± 0.026	0.66 ± 0.066	0.633 ± 0.085	0.564 ± 0.051	0.551 ± 0.042	0.552 ± 0.026
NY BONE	1.04 ± 0.014	1.06 ± 0.021	1.05 ± 0.024	1.07 ± 0.011	1.09 ± 0.043	1.12 ± 0.029	0.9613 ± 0.0029	0.915 ± 0.014	1.019 ± 0.0087	1.01 ± 0.025	1.01 ± 0.037	0.934 ± 0.056	0.928 ± 0.047	0.879 ± 0.033	0.501 ± 0.011	0.257 ± 0.014
OS25HAL BONE	1.02 ± 0.026	1.02 ± 0.031	1.02 ± 0.022	1.02 ± 0.016	1.019 ± 0.0078	1.01 ± 0.019	1.05 ± 0.02	1.02 ± 0.018	1.1 ± 0.034	1.01 ± 0.037	0.96 ± 0.063	0.994 ± 0.017	0.91 ± 0.06	0.812 ± 0.014	0.327 ± 0.02	0.178 ± 0.021
OSHN BONE	1.06 ± 0.017	1.06 ± 0.029	1.09 ± 0.016	1.07 ± 0.025	1.017 ± 0.0072	1.021 ± 0.0095	1.01 ± 0.019	0.977 ± 0.0061	1.08 ± 0.024	1.04 ± 0.016	0.996 ± 0.023	0.9107 ± 0.004	0.742 ± 0.011	0.573 ± 0.081	0.197 ± 0.012	0.145 ± 0.009
PCI30 HEADNECK	0.947 ± 0.047	0.947 ± 0.054	0.969 ± 0.078	1.04 ± 0.052	1.04 ± 0.064	1.03 ± 0.1	1 ± 0.034	0.867 ± 0.044	1.01 ± 0.071	1.04 ± 0.092	0.91 ± 0.063	0.737 ± 0.056	0.585 ± 0.025	0.495 ± 0.0052	1.04 ± 0.025	1.08 ± 0.069
RDES SOFT TISSUE	1.18 ± 0.1	1.15 ± 0.11	0.972 ± 0.078	1.08 ± 0.24	0.759 ± 0.24	0.786 ± 0.23	0.799 ± 0.17	0.912 ± 0.24	1.16 ± 0.1	1.38 ± 0.055	1.07 ± 0.022	1.09 ± 0.093	0.472 ± 0.077	0.137 ± 0.011	0.035 ± 0.001	0.0337 ± 0.0025
S68 BREAST	1.03 ± 0.2	1.16 ± 0.29	1.09 ± 0.28	1.24 ± 0.22	0.826 ± 0.13	0.79 ± 0.18	0.589 ± 0.086	0.516 ± 0.076	1.17 ± 0.16	0.724 ± 0.12	0.602 ± 0.18	0.533 ± 0.095	0.445 ± 0.17	0.378 ± 0.059	0.357 ± 0.032	0.271 ± 0.054
SAOS2 BONE	1.08 ± 0.037	1.01 ± 0.018	1.07 ± 0.021	1.1 ± 0.051	0.895 ± 0.057	0.977 ± 0.12	0.8487 ± 0.0063	0.774 ± 0.01	1.05 ± 0.058	1 ± 0.029	0.999 ± 0.077	0.831 ± 0.069	0.675 ± 0.018	0.489 ± 0.047	0.285 ± 0.022	0.219 ± 0.047
SCC003 HEADNECK	1.06 ± 0.054	1.03 ± 0.013	1.12 ± 0.077	1.08 ± 0.045	0.984 ± 0.033	0.967 ± 0.096	1.04 ± 0.1	0.908 ± 0.091	1.06 ± 0.053	1.07 ± 0.035	1.04 ± 0.015	1.03 ± 0.044	0.913 ± 0.019	0.713 ± 0.059	0.588 ± 0.012	0.475 ± 0.066
SCC36 HEADNECK	0.993 ± 0.025	1.02 ± 0.058	1.09 ± 0.086	1.03 ± 0.026	0.859 ± 0.071	0.896 ± 0.031	0.801 ± 0.045	0.798 ± 0.031	1.13 ± 0.041	0.988 ± 0.087	0.95 ± 0.15	0.886 ± 0.025	0.77 ± 0.089	0.586 ± 0.0076	0.436 ± 0.056	0.352 ± 0.07
